Source: US20160287726A1, “CATIONIC CONTRAST AGENTS AND METHODS OF USING THE SAME” (The Trustees of the University of Pennsylvania, priority 2015, published 2016)

Tests used:
[1] = Demetallation assay in 1M HCl; assay type: physicochemical; details: 2.5 mM, 37° C.
Method: Since transmetallation was not observed in serum supplemented with ZnCl2, the stability of the various Gd complexes were further evaluated by monitoring demetallation in a highly acidic, non-physiologic solution (1M HCl). Even under these harsh conditions, Gd remained complexed with Compound 6 for at least 24 hours (FIG. 3B). […] Since a measurement of the T1 relaxation time could not be acquired at t=0 for this assay, the relaxation ratio could not be calculated. Instead, demetallation was monitored strictly by changes in the T1 relaxation time. In instances of demetallation, the T1 relaxation time moved towards that of free Gd.
Demetallation Assay A 300 μL solution of 2.5 mM Gd-compound was incubated at 37° C. in 1M HCl and the longitudinal relaxation times were acquired at appropriate time points. The relaxation time was then plotted against time.

[2] = Transmetallation assay with ZnCl2 in fetal bovine serum; assay type: physicochemical; details: 2.5 mM complex, 2.5 mM ZnCl2, fetal bovine serum, pH 7.4, 37° C., over 72 hours
Method: To directly compare the stability of Complex A to Gd-DTPA (Magnevist®) and Gd-DOTA (also known as gadoteric acid), a transmetallation assay using equimolar concentrations of ZnCl2 was performed in fetal bovine serum. Transmetallation was monitored as a function of time by calculating the relaxation ratio, R1(t)/R1(0), where R1(t) is the longitudinal Relaxivity at time t and R1(0) is the longitudinal Relaxivity in the absence of ZnCl2 (i.e. time 0).
Transmetallation of Gd^3+ ion by Zinc^2+ ion was performed in fetal bovine serum. The solution contained 4 mL of 2.5 mM Gd-complex and 2.5 mM ZnCl2 at pH 7.4. The mixture was stirred at 37° C. throughout the experiment while 300 μL aliquot was taken up at the appropriate time for measurement of the longitudinal relaxation time. The water proton relaxation times were measured using a Bruker mq60 tabletop MR relaxometer operating at 1.41T. Ratio of reverse relaxation time at each time point (R1(t)) and relaxation time at time zero (R1(0)) was plotted against time.

[3] = tested on: GAG-rich cartilage (articular cartilage microparticles from juvenile bovine femurs); assay: Electrostatic interaction with cartilage microparticles (T1 of supernatant); assay type: binding; details: normalized to average T1 of respective control
Method: To assess whether Gd-DOTA-Am4 interacts electrostatically with GAG-rich cartilage, articular cartilage from juvenile bovine femurs was ground into microparticles. These microparticles were then mixed and incubated with Gd-DOTA, Gd-DTPA, or Gd-DOTA-Am4. The microparticles were then pelleted and the T1 relaxation time of the supernatant was measured. Measurements were compared to analogous control Gd complexes that were not incubated with cartilage microparticles (FIG. 5). All samples were normalized to the average T1 relaxation time of their respective control.

[4] = tested on: adult bovine menisci explants with defect; assay: Contrast-enhanced T1-weighted MR imaging of meniscus explants with defect; details: 2 mM, pH 7.4, ~30 min bath; for qualitative contrast / signal intensity within soft tissue defect: T1-weighted images, 4.7 T
Method: To evaluate the efficacy of Complex A in highlighting soft tissue tears in comparison to Gd-DTPA, explants (8 mm in diameter) were obtained from adult bovine menisci. Well-defined defects were then introduced by using a punch to create a 4 mm internal core, which was left in place. Tissue explant blocks (n=9; 3 per group) were placed in a 48-well microplate and bathed in 2 mM Gd-DTPA, Complex A, or Saline (pH 7.4) for ˜30 min. The pH and concentration of Gd^+3 was kept constant throughout the experiment. T1-weighted images were then acquired in the axial plane (FIGS. 6A and 7). […] In the saline samples, the defects were extremely difficult to identify. To acquire a more quantitative comparison between the three groups, regions of interest (ROI) were drawn around the lateral defects and, following background subtraction (FIGS. 6B-D), the total signal intensity (area under curve) within the ROI was quantified and normalized to the length of the tear (FIG. 6E). The Wilcoxon signed-rank test was then used to compare contrast enhancement for the various contrast agents.
Adult bovine stifle joints were purchased from a commercial vendor (Animal Technologies, Tyler, Tex.), dissected in a sterile field, and the menisci removed. Biopsy punches (Miltex, York, Pa.) were used to produce 8 mm diameter full thickness samples in the axial plane. Well-defined defects were then introduced by using a 4 mm punch to create an internal core, which was left in place. […]
A region of interest (ROI) was determined for each MR image slice (n=6 per contrast agent, i.e. 2 slices per sample). […] The ROI height was determined for each slice individually, such that it could span the sample from top to bottom and exclude media and unrelated bright areas within the cartilage (e.g., cavities near the liquid-cartilage interface). […]
ROIs were partitioned into one-pixel tall lines spanning the entire width. […] All of the integrations in an ROI were then averaged to quantify that ROI's average signal intensity. […]

[5] = tested on: cartilage and meniscus of an intact bovine femorotibial explant; assay: Tissue-based safety assay, intra-articular injection into femorotibial explant; details: after 3 hours, compared with Saline, p>0.05
Method: (§1) The safety profile of Gd-DOTA-Am4 was assessed via both cell- and tissue-based assays. […] Similarly, after intra-articular injection of Saline, Gd-DTPA, or Gd-DOTA-Am4 into the joint space of an intact bovine femorotibial explant, the area fractions of live and dead cells in the cartilage and meniscus were equivalent after 3 hours (p>0.05) (FIG. 9).

[6] = tested on: bovine meniscal fibrochondrocytes (MFCs); assay: Cell-based safety assay on meniscal fibrochondrocyte monolayers; details: over 24 hours, basal media, compared with Saline
Method: as §1

[7] = Relaxivity measurements (longitudinal relaxivity r1); assay type: physicochemical; details: Bruker mq60 MR relaxometer, 1.41 T (60 MHz), saline pH 7.4
Method: Compound2 was prepared by bromination of methyl acrylate using bromine in chloroform at room temperature, while compound 3 was prepared by slow addition of diethylamine into compound 2 in ether at 0° C. The methyl and ethyl protecting groups were efficiently removed with a methanol:NaOH (0.5 M) solvent cocktail (40:60) for 48 h. The solution was neutralized with a 2 M HCl solution and dried. The residue was redissolved in pure methanol, and the precipitate that formed was filtered and the solvent dried in vacuuo to yield compound 6. […] In comparison, the longitudinal relaxivity of Magnevist® was measured to be 3.9 mM^−1s^−1 (FIG. 2B).
Longitudinal relaxation times (T1) were measured in saline at pH 7.4 using a Bruker mq60 tabletop MR relaxometer operating at 1.41 T. The longitudinal relaxivity (r1) of the complex was calculated by plotting the reciprocal of the T1 relaxation time versus the gadolinium concentration.

SMILES	time Gd remained complexed (demetallation) ([1]; monitored by T1 relaxation time)	demetallation (T1 relaxation time) [1]	transmetallation (relaxation ratio R1(t)/R1(0)) [2]	T1 relaxation time of supernatant after incubation with cartilage microparticles vs control without microparticles [3]	qualitative contrast / signal intensity within soft tissue defect [4]	qualitative contrast / signal intensity within soft tissue defect ([4]; listed as Magnevist®)	total signal intensity within ROI normalized to length of tear (contrast enhancement) ([4]; statistical comparison between groups)	area fractions of live and dead cells in the cartilage and meniscus [5]	cell morphology, viability, and proliferation [6]	longitudinal relaxivity [7]
NCC(C(=O)O)N1CCN(C(CN)C(=O)O)CCN(C(CN)C(=O)O)CCN(C(CN)C(=O)O)CC1 (stereo not drawn) [Compound 6, 1,4,7,10-tetraazacyclododecane-N,N′,N″,N′″-(α-(aminomethyl))-tetraacetic acid]	at least 24 hours									
O=C([O-])CN1CCN(CC(=O)[O-])CCN(CC(=O)O)CCN(CC(=O)[O-])CC1.[Gd+3] [Gd-DOTA, 1,4,7,10-tetraazacyclododecane-1,4,7,10-tetraacetic acid (DOTA) gadolinium complex]		rapid demetallation	No transmetallation was detected	no change in the relaxation time						
O=C([O-])CN(CCN(CC(=O)[O-])CC(=O)O)CCN(CC(=O)[O-])CC(=O)O.[Gd+3] [Gd-DTPA, Diethylenetriaminepentaacetic acid (DTPA) gadolinium complex]		rapid demetallation	rapidly increased	no change in the relaxation time	much less contrast was observed within the defect at greater depths	less contrast was observed within the defect at greater depths	statistically significant improvement in contrast compared to saline	equivalent	qualitatively similar between groups	3.9 mM⁻¹ s⁻¹
